Patent publication US20260256728A1, “TREATMENT FOR ASYMPTOMATIC STARGARDT DISEASE PATIENTS” (priority 2024, published 2026)

Columns and labels:
[1] = system: asymptomatic Stargardt disease patients; experiment: TEASE-3 retinal sensitivity by fundus-tracking microperimetry; assay type: in vivo, human
Protocol: FIG. 4 is a graph showing mean retinal sensitivity (dB) over time in three asymptomatic Stargardt disease patients taking gildeuretinol acetate 14 mg daily. Lines show mean retinal sensitivity of both eyes. Lines are piecewise linear regressions with a knot time of 12 months. Each symbol represents a retinal sensitivity measurement for each eye. Patient 1 retinal sensitivity was measured with a Nidek MP-1 (Nidek, Gamagori, Japan). Patients 2 and 3 retinal sensitivity was measured with the Center Vue Macular Integrity Assessment or MAIA (CenterVue, Padova, Italy).
The tolerability and effects of ALK-001 (gildeuretinol acetate) in Stargardt Disease (Clinical trial group 3, also known as TEASE-3) study was an open-label, multicenter, case control study designed to evaluate the efficacy and safety of gildeuretinol acetate on the progression of Stargardt disease in asymptomatic individuals. The trial was conducted at multiple sites in the United States.
Patients received gildeuretinol acetate 14 mg capsules, to be taken orally once daily. […]
Disease progression was monitored by best-corrected visual acuity (BCVA) reported in number of Early Treatment Diabetic Retinopathy Study (ETDRS) letters, fundus autofluorescence (FAF) imaging, loss of photoreceptors (as measured by the ellipsoid zone band loss) by optical coherence tomography (OCT) and retinal sensitivity by microperimetry. […]

[2] = TEASE-1 safety, adverse events

[2H]C([2H])([2H])C(/C=C/C=C(C)/C=C/C1=C(C)CCCC1(C)C)=C\COC(C)=O [gildeuretinol acetate]
change of mean retinal sensitivity ([1]; first year of treatment): −3.1±1.5 dB/year | average rate of retinal sensitivity improvement ([1]; following years of treatment): +0.93±0.7 dB/year | Patients experiencing event (%): Death ([2]; 14 mg (N = 15)): 1 (6.7) | Patients experiencing event (%): Influenza ([2]; 14 mg (N = 15)): 0 | Patients experiencing event (%): Vulvovaginal candidiasis ([2]; 14 mg (N = 15)): 0 | Patients experiencing event (%): Wrist fracture ([2]; 14 mg (N = 15)): 0 | Patients experiencing event (%): Xanthelasma ([2]; 14 mg (N = 15)): 0 | Patients experiencing event (%): Death ([2]; 24 mg (N = 15)): 0 | Patients experiencing event (%): Influenza ([2]; 24 mg (N = 15)): 1 (6.7) | Patients experiencing event (%): Vulvovaginal candidiasis ([2]; 24 mg (N = 15)): 1 (6.7) | Patients experiencing event (%): Wrist fracture ([2]; 24 mg (N = 15)): 0 | Patients experiencing event (%): Xanthelasma ([2]; 24 mg (N = 15)): 1 (6.7) | Patients experiencing event (%): Abdominal discomfort ([2]; Crossover (N = 10)): 1 (10.0) | Patients experiencing event (%): Abdominal distension ([2]; Crossover (N = 10)): 0 | Patients experiencing event (%): Abdominal pain upper ([2]; Crossover (N = 10)): 0 | Patients experiencing event (%): Abnormal dreams ([2]; Crossover (N = 10)): 0 | Patients experiencing event (%): Alanine aminotransferase increased ([2]; Crossover (N = 10)): 1 (10.0) | Patients experiencing event (%): Alopecia ([2]; Crossover (N = 10)): 0 | Patients experiencing event (%): Ankle fracture ([2]; Crossover (N = 10)): 0 | Patients experiencing event (%): Arthralgia ([2]; Crossover (N = 10)): 1 (10.0) | Patients experiencing event (%): Arthritis ([2]; Crossover (N = 10)): 1 (10.0) | Patients experiencing event (%): Aspartate aminotransferase increased ([2]; Crossover (N = 10)): 1 (10.0) | Patients experiencing event (%): Back injury ([2]; Crossover (N = 10)): 0 | Patients experiencing event (%): Back pain ([2]; Crossover (N = 10)): 0 | Patients experiencing event (%): Blepharospasm ([2]; Crossover (N = 10)): 1 (10.0) | Patients experiencing event (%): Blood cholesterol increased ([2]; Crossover (N = 10)): 0 | Patients experiencing event (%): Blood creatinine increased ([2]; Crossover (N = 10)): 0 | Patients experiencing event (%): Blood iron decreased ([2]; Crossover (N = 10)): 0 | Patients experiencing event (%): Blood pressure increased ([2]; Crossover (N = 10)): 0 | Patients experiencing event (%): Blood triglycerides increased ([2]; Crossover (N = 10)): 0 | Patients experiencing event (%): Bowel movement irregularity ([2]; Crossover (N = 10)): 0 | Patients experiencing event (%): Bronchitis ([2]; Crossover (N = 10)): 0 | Patients experiencing event (%): Cartilage injury ([2]; Crossover (N = 10)): 0 | Patients experiencing event (%): Conjunctival laceration ([2]; Crossover (N = 10)): 0 | Patients experiencing event (%): Conjunctivitis ([2]; Crossover (N = 10)): 0 | Patients experiencing event (%): Constipation ([2]; Crossover (N = 10)): 0 | Patients experiencing event (%): Cough ([2]; Crossover (N = 10)): 0 | Patients experiencing event (%): Death ([2]; Crossover (N = 10)): 0 | Patients experiencing event (%): Depression ([2]; Crossover (N = 10)): 0 | Patients experiencing event (%): Diarrhoea ([2]; Crossover (N = 10)): 1 (10.0) | Patients experiencing event (%): Diplopia ([2]; Crossover (N = 10)): 0 | Patients experiencing event (%): Dry eye ([2]; Crossover (N = 10)): 0 | Patients experiencing event (%): Dry mouth ([2]; Crossover (N = 10)): 0 | Patients experiencing event (%): Dry skin ([2]; Crossover (N = 10)): 0 | Patients experiencing event (%): Ear discomfort ([2]; Crossover (N = 10)): 0 | Patients experiencing event (%): Ear pain ([2]; Crossover (N = 10)): 0 | Patients experiencing event (%): Eczema ([2]; Crossover (N = 10)): 1 (10.0) | Patients experiencing event (%): Electrocardiogram abnormal ([2]; Crossover (N = 10)): 1 (10.0) | Patients experiencing event (%): Erythema ([2]; Crossover (N = 10)): 0 | Patients experiencing event (%): Eye irritation ([2]; Crossover (N = 10)): 0 | Patients experiencing event (%): Eye pain ([2]; Crossover (N = 10)): 0 | Patients experiencing event (%): Eye pruritus ([2]; Crossover (N = 10)): 0 | Patients experiencing event (%): Face injury ([2]; Crossover (N = 10)): 0 | Patients experiencing event (%): Faeces soft ([2]; Crossover (N = 10)): 0 | Patients experiencing event (%): Fall ([2]; Crossover (N = 10)): 0 | Patients experiencing event (%): Gastroenteritis ([2]; Crossover (N = 10)): 1 (10.0) | Patients experiencing event (%): Hair texture abnormal ([2]; Crossover (N = 10)): 0 | Patients experiencing event (%): Hand fracture ([2]; Crossover (N = 10)): 0 | Patients experiencing event (%): Headache ([2]; Crossover (N = 10)): 0 | Patients experiencing event (%): Hordeolum ([2]; Crossover (N = 10)): 0 | Patients experiencing event (%): Hypertension ([2]; Crossover (N = 10)): 0 | Patients experiencing event (%): Hypobarism ([2]; Crossover (N = 10)): 0 | Patients experiencing event (%): Hypothyroidism ([2]; Crossover (N = 10)): 0 | Patients experiencing event (%): Hysterectomy ([2]; Crossover (N = 10)): 0 | Patients experiencing event (%): Inflammation ([2]; Crossover (N = 10)): 0 | Patients experiencing event (%): Influenza ([2]; Crossover (N = 10)): 0 | Patients experiencing event (%): Insomnia ([2]; Crossover (N = 10)): 0 | Patients experiencing event (%): Intracranial pressure increased ([2]; Crossover (N = 10)): 0 | Patients experiencing event (%): Irritability ([2]; Crossover (N = 10)): 0 | Patients experiencing event (%): Jaw operation ([2]; Crossover (N = 10)): 0 | Patients experiencing event (%): Knee arthroplasty ([2]; Crossover (N = 10)): 0 | Patients experiencing event (%): Laryngitis ([2]; Crossover (N = 10)): 0 | Patients experiencing event (%): Lip swelling ([2]; Crossover (N = 10)): 0 | Patients experiencing event (%): Low density lipoprotein increased ([2]; Crossover (N = 10)): 0 | Patients experiencing event (%): Muscle spasms ([2]; Crossover (N = 10)): 0 | Patients experiencing event (%): Muscle strain ([2]; Crossover (N = 10)): 0 | Patients experiencing event (%): Musculoskeletal pain ([2]; Crossover (N = 10)): 0 | Patients experiencing event (%): Nasopharyngitis ([2]; Crossover (N = 10)): 1 (10.0) | Patients experiencing event (%): Nausea ([2]; Crossover (N = 10)): 0 | Patients experiencing event (%): Neck pain ([2]; Crossover (N = 10)): 0 | Patients experiencing event (%): Nephrolithiasis ([2]; Crossover (N = 10)): 1 (10.0) | Patients experiencing event (%): Nerve compression ([2]; Crossover (N = 10)): 0 | Patients experiencing event (%): Neuralgia ([2]; Crossover (N = 10)): 0 | Patients experiencing event (%): Obsessive-compulsive disorder ([2]; Crossover (N = 10)): 0 | Patients experiencing event (%): Oropharyngeal pain ([2]; Crossover (N = 10)): 1 (10.0) | Patients experiencing event (%): Osteoporosis ([2]; Crossover (N = 10)): 0 | Patients experiencing event (%): Overall ([2]; Crossover (N = 10)): 8 (80) | Patients experiencing event (%): Pain ([2]; Crossover (N = 10)): 0 | Patients experiencing event (%): Pain in extremity ([2]; Crossover (N = 10)): 0 | Patients experiencing event (%): Pain in jaw ([2]; Crossover (N = 10)): 0 | Patients experiencing event (%): Peripheral coldness ([2]; Crossover (N = 10)): 0 | Patients experiencing event (%): Pharyngitis streptococcal ([2]; Crossover (N = 10)): 0 | Patients experiencing event (%): Photophobia ([2]; Crossover (N = 10)): 0 | Patients experiencing event (%): Photopsia ([2]; Crossover (N = 10)): 0 | Patients experiencing event (%): Plantar fasciitis ([2]; Crossover (N = 10)): 0 | Patients experiencing event (%): Pleurisy ([2]; Crossover (N = 10)): 1 (10.0) | Patients experiencing event (%): Pneumonia ([2]; Crossover (N = 10)): 1 (10.0) | Patients experiencing event (%): Premenstrual syndrome ([2]; Crossover (N = 10)): 0 | Patients experiencing event (%): Punctate keratitis ([2]; Crossover (N = 10)): 0 | Patients experiencing event (%): Pyrexia ([2]; Crossover (N = 10)): 0 | Patients experiencing event (%): Radius fracture ([2]; Crossover (N = 10)): 0 | Patients experiencing event (%): Rash ([2]; Crossover (N = 10)): 1 (10.0) | Patients experiencing event (%): Rotator cuff syndrome ([2]; Crossover (N = 10)): 0 | Patients experiencing event (%): Sialoadenitis ([2]; Crossover (N = 10)): 0 | Patients experiencing event (%): Sinus congestion ([2]; Crossover (N = 10)): 0 | Patients experiencing event (%): Sinusitis ([2]; Crossover (N = 10)): 0 | Patients experiencing event (%): Sjogren's syndrome ([2]; Crossover (N = 10)): 0 | Patients experiencing event (%): Subdural haematoma ([2]; Crossover (N = 10)): 0 | Patients experiencing event (%): Syncope ([2]; Crossover (N = 10)): 0 | Patients experiencing event (%): Tendonitis ([2]; Crossover (N = 10)): 0 | Patients experiencing event (%): Thoracic outlet syndrome ([2]; Crossover (N = 10)): 0 | Patients experiencing event (%): Tongue dry ([2]; Crossover (N = 10)): 0 | Patients experiencing event (%): Tooth abscess ([2]; Crossover (N = 10)): 0 | Patients experiencing event (%): Tooth extraction ([2]; Crossover (N = 10)): 0 | Patients experiencing event (%): Toothache ([2]; Crossover (N = 10)): 0 | Patients experiencing event (%): Vision blurred ([2]; Crossover (N = 10)): 1 (10.0) | Patients experiencing event (%): Visual field defect ([2]; Crossover (N = 10)): 1 (10.0) | Patients experiencing event (%): Visual impairment ([2]; Crossover (N = 10)): 0 | Patients experiencing event (%): Vitamin B12 deficiency ([2]; Crossover (N = 10)): 0 | Patients experiencing event (%): Vitamin D decreased ([2]; Crossover (N = 10)): 0 | Patients experiencing event (%): Vitreous floaters ([2]; Crossover (N = 10)): 1 (10.0) | Patients experiencing event (%): Vulvovaginal candidiasis ([2]; Crossover (N = 10)): 0 | Patients experiencing event (%): Wrist fracture ([2]; Crossover (N = 10)): 0 | Patients experiencing event (%): Xanthelasma ([2]; Crossover (N = 10)): 0 | association between treatment groups and frequency of adverse events ([2]; in vivo): no association was observed | changes by physical examination, electrocardiogram, vital signs, hematology, biochemistry and lipid panels ([2]; in vivo): no changes were attributed to gildeuretinol acetate
